Measured values as given in patent US8772348B2, “Materials and methods for pest control” (priority 2009, dated 2014).
Like-named read-outs stand apart in the source and are kept apart here.

Experiments:
[1] = test system: Susceptible Musca domestica; assay: Contact bioassay of emulsified concentrate formulations on filter paper discs; conditions: EC formulation on filter paper
Experimental: (§1) A commercially-available permethrin 57 g L^−1 EC (Ectiban EC 57; Universal Cooperatives, Minneapolis, Minn.) was included for comparison. Except rosalva, the 50% EC semiochemical formulations were generated by combining 500 mL AI, 430 mL canola oil (Publix, Lakeland, Fla.), 10 mL xylene, 50 mL Triton X-100 (Acros Organics Nev., Fair Lawn, N.J.) and 10 mL Agsolex-8 (International Specialty Products, Wayne, N.J.). The rosalva formulation contained all of the above-mentioned ingredients, with canola oil concentration reduced to 400 mL L^−1, Triton X-100 concentration increased to 75 mL L^−1, and 5 mL L^−1 Antifoam B silicone emulsion (Mallinckrodt Baker, Phillipsburg, N.Y.) included.
Briefly, Whatman No. 1 filter paper discs (63.58 cm^2) are impregnated with 1.5 ml serially diluted formulations in 20 emulsified concentrates and 50 emulsified concentrates, respectively, and subsequently dried for about an hour. Then, house flies are divided into seven sets: three sets as the experiment, three sets as the positive control, and one set as the negative control. Each set consists of twenty six-to-ten-day old adult flies. […] The positive control set is exposed to paper discs impregnated with geranyl acetone, rosalva or citronellol. The negative control set is exposed to paper discs impregnated with acetone solution. Throughout the exposure periods, each set is provided with 10% sucrose solution and sufficient air circulation. Ataxic flies are considered dead. The mortality rate and the LC values are determined using the same procedures as is illustrated in Example 2.

Aedes aegypti [2] = conditions: formulation on plywood panels at 1.67 mg cm^−2, 2 h exposure, mortality 24 h after initial exposure
Experimental: Briefly, after mosquitoes are assayed on unpainted plywood panel boards with formulation at a concentration of 1.67 mg cm^−2 for 2 hours, they are transferred into a separate glass jar, and held for another 24 hours. The mortality rate is measured daily for a continuous 4 days (Day 1 starts at 24 hours after the transfer), as is determined using the same procedures as are illustrated in Example 2.
Plywood panels (225 cm^2) were treated with chemicals at a rate of 1.67 mg cm^−2. Panels were treated on day 0 and was held until exposure on post-treatment day. Mosquitoes were exposed to chemicals for 2 h, and mortality rate was assessed 24 h after initial exposure. Control contained formulation ingredients without semiochemicals.

Aedes aegypti [3] = conditions: EC formulation on military fabric
Experimental: as §1
Briefly, a piece of 10×10 cm^2 fabric (TenCate Defender™) is impregnated with 2 ml of serially diluted 20-emulsifiable concentrate or 50-emulsifiable concentrate formulations, respectively, and subsequently dried for about an hour. Also, six-to-ten-day-old, never blood-fed, adult female Ae. aegypti mosquitoes are obtained. The mosquitoes are divided into seven sets: three sets as the experiment, three sets as the positive control, and one set as the negative control. Each set consists of 20 mosquitoes. […] The positive control set is exposed to fabric pieces treated with geranyl acetone, rosalva or citronellol. The negative control set is exposed to fabric pieces treated with acetone solution. Throughout the exposure periods, each set is provided with 10% sucrose solution and sufficient air circulation. Ataxic mosquitoes are considered dead. The mortality rate and the LC values are determined using the same procedures as are illustrated in Example 2.

Aedes aegypti [4] = conditions: formulation on military fabric at LC99-based concentration, 2 h exposure, mortality 24 h after initial exposure
Experimental: Briefly, after mosquitoes are exposed to formulations for 2 hours at a concentration of LC99, each set is transferred into a separate glass jar, and held for another 24 hours. The mortality rate is measured with new mosquitoes on post-treatment days 2, 3, 5, 8 and 14 (Day 1 starts at 24 hours after the transfer), and is determined using the same procedures as are illustrated in Example 2.
Concentrations were generated from technical-based LC99 values obtained from a 2 h exposure period on military fabric. Fabric was treated on day 0 and was held until exposure on post-treatment day. Mosquitoes were exposed for 2 h, and mortality rate was assessed 24 h after initial exposure. Control contained formulation ingredients without semiochemicals.

SMILES	LC90 ([1]; 24 h constant exposure) [μg cm^−2]	LC90 ([1]; 48 h constant exposure) [μg cm^−2]	% mortality on various days following treatment (Aedes aegypti [2]; day 1)	% mortality on various days following treatment (Aedes aegypti [2]; day 2)	% mortality on various days following treatment (Aedes aegypti [2]; day 3)	% mortality on various days following treatment (Aedes aegypti [2]; day 4)	LC90 (Aedes aegypti [3]; exposure period 2 hours) [μg cm^−2]	LC90 (Aedes aegypti [3]; exposure period 4 hours) [μg cm^−2]	LC90 (Aedes aegypti [3]; exposure period 24 hours) [μg cm^−2]	% mortality on various days following treatment (Aedes aegypti [4]; day 1) [a %]	% mortality on various days following treatment (Aedes aegypti [4]; day 2) [a %]	% mortality on various days following treatment (Aedes aegypti [4]; day 5) [b %]	% mortality on various days following treatment (Aedes aegypti [4]; day 14)	% mortality on various days following treatment (Aedes aegypti [4]; day 3)	% mortality on various days following treatment (Aedes aegypti [4]; day 8)
CC(C)=CCCC(C)CCO (stereo not shown) [Citronellol, citronellol]	580.00	886.04	94.00a %	61.0b %	26.0b %	10.0b %	1938.19	1434.18	700.43	95.00	77.50	35.00	2.50cd %	–	–
CC(=O)CC/C=C(\C)CCC=C(C)C [Geranyl acetone, geranyl acetone]	1227.00	716.72	84.00a %	25.0c %	8.0c %	5.0c %	934.62	742.61	338.61	91.25	83.00	32.50	5.00c %	30.00c %	17.50c %
C=CCCCCCCCCO [Rosalva, rosalva]	1054.32	1022.88	58.00b %	34.0c %	11.0%	3.25.c %	1276.16	1262.11	500.92	95.00	87.50	35.00	0.00d %	65.00b %	27.50a %
